Where a SMILES comes first, the peptide text is derived from it.
What was measured:
[1] = tested on: parakeratosis and skin roughness caused by oleic acid on the back of hairless mice; test: Parakeratosis inhibition effect test: oleic acid applied to the back of hairless mice, visual skin roughness and parakeratosis level; format: in vivo, hairless mice (HR-1); design: key to Evaluation Visual (mean of 4 mice), skin roughness: 0.0 = no roughness, 2.0 = control application; 0.25 steps; details: for Evaluation Parakeratosis (mean of 4 mice): range 1.0 to 3.0, higher = severer, control 2.0; for Evaluation Visual (mean of 4 mice), skin roughness: score 0.0 no roughness, 2.0 control; for effect of inhibiting parakeratosis (conclusion from Table 4) / effect of inhibiting parakeratosis (conclusion from Table 1): hairless mice, oleic acid; for effect of inhibiting parakeratosis (conclusion from Table 4): fourth embodiment; for effect of inhibiting parakeratosis (conclusion from Table 1): first embodiment
Method: A 3 weight % water solution (including 30 weight % ethanol) was prepared as the evaluation specimen of the glycine derivatives in accordance with the invention 1. The pH was regulated to the range between 7.0 to 7.5, by using hydrochloric acid and sodium hydroxide. When the solubility was low, the solution was adjusted accordingly.
100 microliters of 10 weight % oleic acid (solvent: ethanol) was applied to the back of hairless mice (HR-1, Hoshino laboratory animals). Thereafter, 100 microliters of sample solution was applied (glycine derivatives in accordance with said invention 1) at each time. This procedure was repeated for 3 days. The day after the application, the skin condition of the backs was observed by using a CCD camera to evaluate the skin roughness (stratified ablation of the skin surface stratum corneum and red spots). The skin condition was evaluated visually, with scoring the skin condition of control application to 2.0 and the skin condition of no roughness to 0.0, in a 0.25 point step in response to the skin condition. At the same time, the skin surface stratum corneum of the back of hairless mice was peeled off by using a tape for staining the nucleus with haematoxylin to observe the degrees of parakeratosis (parakeratosis level) and evaluate in 0.25 step in the range from 1.0 to 3.0. The higher evaluation points indicates the larger number of parakeratotic corneocytes count, i.e., severer parakeratosis.
The samples to be evaluated of the glycine derivatives and the salts thereof as well as the aminosulfuric acid derivatives and the salts thereof in accordance with the invention 2 were prepared mainly 3 weight % solution (including 30 weight % ethanol, excluding Hydantoic acid and ACES which include 20 weight % ethanol). pH was regulated by using hydrochloric acid or sodium hydroxide to be 7.0 to 7.5. When the solubility was low, then the solution was prepared accordingly.
100 microliters of 10 weight % oleic acid (solvent: ethanol) was applied to the back of Hairless mice (HR-1, Hoshino laboratory animals) Thereafter, 100 microliters of sample solution (glycine derivatives in accordance with the invention 2) was applied thereon at each time. This procedure was repeated for 3 days. The day after the application, the skin condition of the backs was observed by using a CCD camera to evaluate the skin roughness (stratified ablation of the skin surface stratum corneum and red spots). The skin condition was evaluated visually, with scoring the skin condition of control application to 2.0 and the skin condition of no roughness to 0.0, in a 0.25 point step in response to the skin condition. At the same time, the skin surface stratum corneum of the back of hairless mice was peeled off by using a tape for staining the nucleus with haematoxylin to observe the degrees of parakeratosis and evaluate in 0.25 step in the range from 1.0 to 3.0. The higher evaluation points indicates the larger number of parakeratotic corneocytes count, i.e., severer parakeratosis.

[2] = tested on: skin roughness caused by oleic acid on the back of hairless mice; test: Inhibitory effect on skin roughness by the application of oleic acid (TEWL value); format: in vivo, hairless mice (HR-1); design: ΔTEWL: unit not given here; details: for ΔTEWL: after 10 weight % oleic acid, 3 days, four mice per group, control 12.0; for decrease of delta-TEWL value as compared to the control solution (conclusion from Table 6): hairless mice, oleic acid, seventh embodiment
Method: To study the inhibitory effect on the skin roughness by the application of oleic acid by the glycine derivatives and the salts thereof as well as the aminosulfuric acid derivatives and the salts thereof in accordance with the invention 2, the […] (TEWL value) before and after the application was measured to compare the difference therebetween with the value of control (control solution) in order to determine the effect. The preparation of samples and the application procedure were in accordance with the embodiment 4. The TEWL value was measured by means of TEWA meter TM210 (Courage+Khazaka Inc.).
100 microliters of 10 weight % oleic acid (solvent: ethanol) was applied to the back of hairless mice (HR-1, four in each group). Thereafter, 100 microliters of sample solutions (glycine derivatives and the salts thereof as well as the aminosulfuric acid derivatives and the salts thereof) in accordance with the invention 2 were applied at each time. This procedure was repeated for 3 days. The day after the application, TEWL value of the back of mice was measured and the values were averaged. The larger delta-TEWL value indicates severer aggravation of skin roughness.

[3] = Table 4, sample 3 weight % in aqueous 30 weight % ethanol (hydantoic acid: 20 weight % ethanol)
[4] = sample 3 weight %, larger = severer roughness
[5] = sample 3 weight % in aqueous 30 weight % ethanol, after 10 weight % oleic acid, 3 days
[6] = sample 1 weight % in aqueous 30 weight % ethanol, after 10 weight % oleic acid, 3 days

`O=S(=O)(O)CCCCNC1CCCCC1` [CABS, 4-(cyclohexylamino)-1-butane sulfonic acid, reference compound] was tested, and the “Evaluation Parakeratosis (mean of 4 mice)” value (from here on “Evaluation Parakeratosis”) [1, 3] was 2.0, the “Evaluation Visual (mean of 4 mice), skin roughness” value (“Evaluation Visual (mean of 4 mice)” for short) [1, 3] was 1.9 and the “effect of inhibiting parakeratosis (conclusion from Table 4)” value [1] was “effect was not recognized”. The ΔTEWL [2, 4] was 11.9.
`O=S(=O)(O)CCNC1CCCCC1` [CHES, 2-(N-cyclohexylamino)ethane sulfonic acid, reference compound] was tested, and the “Evaluation Parakeratosis” value [1, 3] was 1.9, the “Evaluation Visual (mean of 4 mice)” value [1, 3] was 1.8 and the “effect of inhibiting parakeratosis (conclusion from Table 4)” value [1] was “effect was not recognized”. It also gave a ΔTEWL [2, 4] of 12.3.
`O=S(=O)(O)CCCN1CCOCC1` [MOPS, 3-(N-morpholino)propane sulfonic acid, reference compound] was tested, and the “Evaluation Parakeratosis” value [1, 3] was 2.1, the “Evaluation Visual (mean of 4 mice)” value [1, 3] was 1.9 and the “effect of inhibiting parakeratosis (conclusion from Table 4)” value [1] was “effect was not recognized”. For the same compound, the ΔTEWL [2, 4] was 13.2.
`CN(C)CC(=O)O` [N,N-dimethylglycine, reference compound] was tested, and the “Evaluation Parakeratosis” value [1, 3] was 2.3, the “Evaluation Visual (mean of 4 mice)” value [1, 3] was 2.1 and the ΔTEWL [2, 4] was 15.5.
In the case of `CC(=O)N[C@@H](CC(=O)O)C(=O)O` [N-acetyl-L-aspartic acid], the “effect of inhibiting parakeratosis (conclusion from Table 1)” value [1] is reported as “have the effect of inhibiting parakeratosis”, the “Evaluation Parakeratosis” value [1, 5] is reported as 1.5 and the “Evaluation Visual (mean of 4 mice)” value [1, 5] is reported as 1.4.
`CC(=O)NCC(=O)O` [N-acetylglycine, reference compound] was tested, and the “Evaluation Parakeratosis” value [1, 3] was 2.0, the “Evaluation Visual (mean of 4 mice)” value [1, 3] was 1.9 and the ΔTEWL [2, 4] was 14.7.
`O=C(O)CC[C@H](NS(=O)(=O)c1ccccc1)C(=O)O` [N-benzenesulfonyl-L-glutamic acid, N-benzene-sulfonyl-L-glutamic acid] was tested, and the “effect of inhibiting parakeratosis (conclusion from Table 1)” value [1] was “have the effect of inhibiting parakeratosis”, the “Evaluation Parakeratosis” value [1, 5] was 1.6 and the “Evaluation Visual (mean of 4 mice)” value [1, 5] was 1.6.
`O=C(O)CC[C@H](NC(=O)c1ccccc1)C(=O)O` [N-benzoyl-L-glutamic acid] was tested, and the “effect of inhibiting parakeratosis (conclusion from Table 1)” value [1] was “have the effect of inhibiting parakeratosis”, the “Evaluation Parakeratosis” value [1, 5] was 1.6 and the “Evaluation Visual (mean of 4 mice)” value [1, 5] was 1.7.
In the case of `O=S(=O)(O)CCCNC(CO)(CO)CO` [TAPS, N-tris(hydroxymethyl)methyl-3-aminopropane sulfonic acid, reference compound], the “Evaluation Parakeratosis” value [1, 3] is reported as 2.1, the “Evaluation Visual (mean of 4 mice)” value [1, 3] is reported as 2.0 and the “effect of inhibiting parakeratosis (conclusion from Table 4)” value [1] is reported as “effect was not recognized”. For the same compound, the ΔTEWL [2, 4] was 12.0.
With `CCOC(=O)CCN.Cl` [beta-alanine ethyl ester HCL, beta-alanine ethyl-ester hydrochloride] the “effect of inhibiting parakeratosis (conclusion from Table 1)” value [1] was “have the effect of inhibiting parakeratosis”, the “Evaluation Parakeratosis” value [1, 5] was 1.2 and the “Evaluation Visual (mean of 4 mice)” value [1, 5] was 1.0.
With `C[N+](C)(C)CC(=O)O` [betaine, reference compound] the “Evaluation Parakeratosis” value [1, 3] was 1.8, the “Evaluation Visual (mean of 4 mice)” value [1, 3] was 1.8 and the ΔTEWL [2, 4] was 10.6.
For `O=C(O)CN(CCO)CCO` [bicine, reference compound], the “Evaluation Parakeratosis” value [1, 3] was 2.0, the “Evaluation Visual (mean of 4 mice)” value [1, 3] was 1.9 and the ΔTEWL [2, 4] was 12.0.
In the case of `CCOC(=O)CN1CCCCC1` [ethyl-1-piperidine acetate, reference compound], the “Evaluation Parakeratosis” value [1, 3] is reported as 1.9, the “Evaluation Visual (mean of 4 mice)” value [1, 3] is reported as 1.8 and the ΔTEWL [2, 4] is reported as 10.7.
`NCC(N)=O` [glycine amide, reference compound] was tested, and the “Evaluation Parakeratosis” value [1, 5] was 2.1 and the “Evaluation Visual (mean of 4 mice)” value [1, 5] was 1.9.
`Cl.NCC(=O)OCc1ccccc1` [glycine benzyl ester HCL, glycine benzyl ester hydrochloride] was tested, and the “effect of inhibiting parakeratosis (conclusion from Table 1)” value [1] was “have the effect of inhibiting parakeratosis”, the “Evaluation Parakeratosis” value [1, 5] was 1.2 and the “Evaluation Visual (mean of 4 mice)” value [1, 5] was 1.3.
In the case of `CCOC(=O)CN.Cl` [glycine ethyl ester HCL, glycine ethyl ester hydrochloride], the “effect of inhibiting parakeratosis (conclusion from Table 1)” value [1] is reported as “have the effect of inhibiting parakeratosis”, the “Evaluation Parakeratosis” value [1, 5] is reported as 1.1 and the “Evaluation Visual (mean of 4 mice)” value [1, 5] is reported as 1.2.
`CCCCOC(=O)CN.Cl` [glycine n-butyl ester HCL, glycine n-butyl ester hydrochloride] was tested, and the “effect of inhibiting parakeratosis (conclusion from Table 1)” value [1] was “have the effect of inhibiting parakeratosis”, the “Evaluation Parakeratosis” value [1, 5] was 1.5 and the “Evaluation Visual (mean of 4 mice)” value [1, 5] was 1.6.
With `CCCOC(=O)CN.Cl` [glycine n-propyl ester HCL, glycine n-propyl ester hydrochloride] the “effect of inhibiting parakeratosis (conclusion from Table 1)” value [1] was “have the effect of inhibiting parakeratosis”, the “Evaluation Parakeratosis” value [1, 5] was 1.4 and the “Evaluation Visual (mean of 4 mice)” value [1, 5] was 1.4.
In the case of `CC(C)(C)OC(=O)CN.Cl` [glycine t-butyl ester HCL, glycine t-butyl ester hydrochloride], the “effect of inhibiting parakeratosis (conclusion from Table 1)” value [1] is reported as “have the effect of inhibiting parakeratosis”, the “Evaluation Parakeratosis” value [1, 5] is reported as 1.5 and the “Evaluation Visual (mean of 4 mice)” value [1, 5] is reported as 1.6.
`Cl.NCC(N)=O` [glycine-amide HCL, glycine-amide hydrochloride, reference compound] was tested, and the “Evaluation Parakeratosis” value [1, 3] was 2.0, the “Evaluation Visual (mean of 4 mice)” value [1, 3] was 1.9 and the “effect of inhibiting parakeratosis (conclusion from Table 4)” value [1] was “did not exhibit such effect”. The ΔTEWL [2, 4] was 12.4.
For `NCC(=O)NCC(=O)NCC(=O)O` [glycyl-glycylglycine, reference compound] (H-Gly-Gly-Gly-OH), the “Evaluation Parakeratosis” value [1, 6] was 2.0 and the “Evaluation Visual (mean of 4 mice)” value [1, 6] was 1.9.
`CCOC(=O)CNC(=O)CN.Cl` [glycylglycine ethyl ester HCL, glycylglycine ethyl ester hydrochloride salt] was tested, and the “Evaluation Parakeratosis” value [1, 3] was 1.1, the “Evaluation Visual (mean of 4 mice)” value [1, 3] was 1.3 and the “effect of inhibiting parakeratosis (conclusion from Table 4)” value [1] was “have the effect of inhibiting parakeratosis”. The “decrease of delta-TEWL value as compared to the control solution (conclusion from Table 6)” value [2] was “significant decrease of delta-TEWL value” and the ΔTEWL [2, 4] was 6.7.
In the case of `N=C(N)N1CCC(C(=O)O)CC1` [guanidinoisonipecotinic acid, reference compound], the “Evaluation Parakeratosis” value [1, 5] is reported as 2.2 and the “Evaluation Visual (mean of 4 mice)” value [1, 5] is reported as 2.0.
In the case of `O=C(O)C1CCNCC1` [isonipecotinic acid, isonipecotic acid], the “effect of inhibiting parakeratosis (conclusion from Table 1)” value [1] is reported as “have the effect of inhibiting parakeratosis”, the “Evaluation Parakeratosis” value [1, 5] is reported as 1.5 and the “Evaluation Visual (mean of 4 mice)” value [1, 5] is reported as 1.6.
With `O=C(O)CNC(=O)c1cccnc1` [nicotinoylglycine, N-nicotinoylglycine] the “decrease of delta-TEWL value as compared to the control solution (conclusion from Table 6)” value [2] was “significant decrease of delta-TEWL value” and the ΔTEWL ([2]; sample 0.1 weight %) was 7.4.

Reference: patent publication US8586638B2, “Parakeratosis inhibitor and skin preparation for external use” (priority 2003, dated 2013)
